Source: patent US20260335329A1, “PROTEIN PHOSPHATASE AGONIST AND USE” (priority 2022, published 2026)
Where “and” joins values, the source holds several entries; their conditions need not be identical. Identical values can stand only once.

Legend:
PP2A [1] = test: PP2A protein expression level in PC12 cells treated with Aβ (Western Blot); assay type: cell-based; details: then Aβ 40 μmol/L; for PP2A (Western Blot signal) / PP2A protein expression level, β-actin(%): 2 h, 24 h
Protocol: PC12 cells were cultured adherently. 0.1 μmol/L compound 2, 0.5 μmol/L compound 2, 1 μmol/L compound 2, 5 μmol/L compound 2, and 10 μmol/L compound 2 were added respectively. Then, the cells were incubated for 2 h. 40 μmol/L Aβ was then added. Then, the cells were incubated for 24 h. Total protein was extracted. PP2A activity was detected by the Western Blot assay.

PC12 cells [2] = test: Survival rate of PC12 cells in the okadaic acid-induced injury model (CCK-8); assay type: cell-based
Protocol: PC12 cells were detached and counted. A cell suspension was prepared at 8.0×10^4 cells/mL. 100 μL of the cell suspension was added to each well of a 96-well cell culture plate. The 96-well cell culture plate was placed in an incubator at 37° C. in 5% CO2 and cultured for 24 h. In an experimental group, the PC12 cells were pre-incubated for 2 h in a culture medium containing a test compound (the concentrations of the compound were 0.1 μmol/L, 0.5 μmol/L, 1 μmol/L, 5 μmol/L, and 10 μmol/L respectively, and the concentrations of the compound were set according to the concentrations in Table 5, Table 6, Table 7, and Table 8). […] In addition, a negative control group (no test compound or okadaic acid added) and a model group (only okadaic acid added) were set. The 96-well cell culture plate was placed in an incubator at 37° C. in 5% CO2 and cultured for 24 h. The cells in the 96-well cell culture plate were stained with 10 μL of CCK-8 in each well, and then cultured in the incubator for 1 h to 2 h. The 96-well cell culture plate was shaken gently for 10 min to mix uniformly and remove bubbles from the 96-well cell culture plate. The OD value of each well at 2=450 nm was read by using a microplate reader. A survival rate of cells was calculated.
Calculation formula for the cell survival rate: […]
The effect of each compound on the survival rate of PC12 cells in the okadaic acid- and Aβ1-42-induced injury models was determined by the CCK-8 cell proliferation assay.

[3] = system: p-tauSer396 in SH-SY5Y cells; test: Okadaic acid-induced phosphorylation of tau protein (p-tauSer396) in SH-SY5Y cells (Western Blot); assay type: cell-based, human; details: for p-tauSer396 level (%): 24 h, then okadaic acid 40 nmol/L, SEM
Protocol: SH-SY5Y cells were cultured in vitro for 24 h in culture media containing different concentrations of compound 2. Then, the cells were treated with 40 nmol/L okadaic acid for 24 h. The p-tauSer396 level of the SH-SY5Y cells was measured by the Western Blot assay.

PC12 cells [4] = test: Survival rate of PC12 cells in the Aβ1-42-induced injury model (CCK-8); assay type: cell-based; details: for OD value at 450 nm, Mean ± SD: 2 h, then Aβ1-42 40 μmol/L, 24 h, PC12 cells
PP2A [5] = test: Okadaic acid-induced PP2A protein expression level in PC12 cells (Western Blot); assay type: cell-based; details: for PP2A (Western Blot signal) / PP2A(%): 2 h, then okadaic acid 40 nmol/L, 24 h
Protocol: PC12 cells were inoculated into a T25 culture flask. After the cells were attached to the wall, compound 1 and compound 2 were added, and then the cells were incubated for 2 h. 40 nmol/L okadaic acid was then added. Then, the cells were incubated for 24 h. The protein was extracted. Based on the Western Blot assay, the PP2A protein expression level in PC12 cells was detected through SDS-PAGE and transfer, immunoblotting, color development, and G: BOX chemiXR5 imaging.

[6] = compound 0.1 μmol/L, PC12 cells
[7] = compound 0.5 μmol/L, PC12 cells

Structure (SMILES): COCc1cc2oc(=N)c3ccccc3n2n1 [Compound 2, 2-(methoxymethyl)-5H-benzo[d]pyrazolo[5,1-b][1,3]oxazin-5-imine]
- PP2A (Western Blot signal) (PP2A [1]; [6]): 1025.7
- PP2A protein expression level, β-actin(%) (PP2A [1]; [6]): 31.24%
- PP2A (Western Blot signal) (PP2A [1]; [7]): 1129.7
- PP2A protein expression level, β-actin(%) (PP2A [1]; [7]): 33.18%
- PP2A (Western Blot signal) (PP2A [1]; compound 1 μmol/L, PC12 cells): 1180.1
- PP2A protein expression level, β-actin(%) (PP2A [1]; compound 1 μmol/L, PC12 cells): 33.51%
- PP2A (Western Blot signal) (PP2A [1]; compound 5 μmol/L, PC12 cells): 1284.7
- PP2A protein expression level, β-actin(%) (PP2A [1]; compound 5 μmol/L, PC12 cells): 35.61%
- PP2A (Western Blot signal) (PP2A [1]; compound 10 μmol/L, PC12 cells): 2192.1
- PP2A protein expression level, β-actin(%) (PP2A [1]; compound 10 μmol/L, PC12 cells (normal cells 58.95%)): 58.59%
- effect on PP2A protein expression level (PP2A [1]; compound 10 μmol/L, PC12 cells): can significantly increase the PP2A protein expression level
- effect on PP2A protein expression level (PP2A [1]; compound 0.1, 0.5, 1 and 5 μmol/L, PC12 cells): can increase the PP2A protein expression level in PC12 cells that is reduced due to Aβ, in a specific dose-effect relationship
- viability at 0.1 µM (PC12 cells [2]; Rattus norvegicus, PC-12, 24 h, compound 0.1 μmol/L, 2 h, then okadaic acid 50 nmol/L, 24 h, PC12 cells): 49.2%
- viability at 0.5 µM (PC12 cells [2]; Rattus norvegicus, PC-12, 24 h, compound 0.5 μmol/L, 2 h, then okadaic acid 50 nmol/L, 24 h, PC12 cells): 51%
- viability at 1 µM (PC12 cells [2]; Rattus norvegicus, PC-12, 24 h, compound 1 μmol/L, 2 h, then okadaic acid 50 nmol/L, 24 h, PC12 cells): 59.4%
- viability at 5 µM (PC12 cells [2]; Rattus norvegicus, PC-12, 24 h, compound 5 μmol/L, 2 h, then okadaic acid 50 nmol/L, 24 h, PC12 cells): 70.8%
- viability at 10 µM (PC12 cells [2]; Rattus norvegicus, PC-12, 24 h, compound 10 μmol/L, 2 h, then okadaic acid 50 nmol/L, 24 h, PC12 cells): 78.4%
- OD value at 450 nm, Mean ± SD (PC12 cells [2]; compound 0.1 μmol/L, 2 h, then okadaic acid 50 nmol/L, 24 h, PC12 cells): 0.652 ± 0.018
- OD value at 450 nm, Mean ± SD (PC12 cells [2]; compound 0.5 μmol/L, 2 h, then okadaic acid 50 nmol/L, 24 h, PC12 cells): 0.676 ± 0.016
- OD value at 450 nm, Mean ± SD (PC12 cells [2]; compound 1 μmol/L, 2 h, then okadaic acid 50 nmol/L, 24 h, PC12 cells): 0.787 ± 0.028
- OD value at 450 nm, Mean ± SD (PC12 cells [2]; compound 5 μmol/L, 2 h, then okadaic acid 50 nmol/L, 24 h, PC12 cells): 0.92 ± 0.008 and 0.967 ± 0.018
- Survival rate % (PC12 cells [2]; compound 5 μmol/L, 2 h, then okadaic acid 50 nmol/L, 24 h, PC12 cells, 1440 min, 5 µM): 72.93%
- OD value at 450 nm, Mean ± SD (PC12 cells [2]; compound 10 μmol/L, 2 h, then okadaic acid 50 nmol/L, 24 h, PC12 cells): 1.04 ± 0.017
- survival rate compared with okadaic acid model group (PC12 cells [2]; compound 0.1 and 0.5 μmol/L): no statistical difference (P>0.05)
- survival rate compared with okadaic acid model group (PC12 cells [2]; compound 1, 5 and 10 μmol/L): significant statistical differences (P<0.01)
- okadaic acid-induced phosphorylation of tau protein ([3]; compared with okadaic acid only): can significantly inhibit okadaic acid-induced phosphorylation of tau protein in cells
- p-tauSer396 level (%) ([3]; compound 0.1 μmol/L, n = 3): 0.761 ± 0.008%
- p-tauSer396 level (%) ([3]; compound 0.3 μmol/L, n = 3): 0.663 ± 0.027%
- change of p-tauSer396 level ([3]; compound 1.0 μmol/L and 3.0 μmol/L): decreases significantly (P<0.05)
- p-tauSer396 level (%) ([3]; compound 1.0 μmol/L, n = 3, P<0.05 vs negative control): 0.557 ± 0.013 %
- p-tauSer396 level (%) ([3]; compound 3.0 μmol/L, n = 3, P<0.05 vs negative control): 0.578 ± 0.025 %
- change of p-tauSer396 level ([3]; compound 10 μmol/L): decreases significantly (P<0.01)
- p-tauSer396 level (%) ([3]; compound 10 μmol/L, n = 3, P<0.01 vs negative control): 0.522 ± 0.016 %
- viability at 0.1 µM (PC12 cells [4]; Rattus norvegicus, PC-12, 24 h): 50.7%
- viability at 0.5 µM (PC12 cells [4]; Rattus norvegicus, PC-12, 24 h): 50.6%
- viability at 1 µM (PC12 cells [4]; Rattus norvegicus, PC-12, 24 h): 55.7%
- viability at 5 µM (PC12 cells [4]; Rattus norvegicus, PC-12, 24 h): 68.3%
- viability at 10 µM (PC12 cells [4]; Rattus norvegicus, PC-12, 24 h): 79.1%
- OD value at 450 nm, Mean ± SD (PC12 cells [4]; compound 0.1 μmol/L): 0.699 ± 0.027
- OD value at 450 nm, Mean ± SD (PC12 cells [4]; compound 0.5 μmol/L): 0.698 ± 0.024
- OD value at 450 nm, Mean ± SD (PC12 cells [4]; compound 1 μmol/L): 0.768 ± 0.015
- OD value at 450 nm, Mean ± SD (PC12 cells [4]; compound 5 μmol/L): 0.941 ± 0.018
- OD value at 450 nm, Mean ± SD (PC12 cells [4]; compound 10 μmol/L): 1.09 ± 0.026
- survival rate compared with Aβ1-42 model group (PC12 cells [4]; compound 0.1 and 0.5 μmol/L): no statistical difference (P>0.05)
- survival rate compared with Aβ1-42 model group (PC12 cells [4]; compound 1, 5 and 10 μmol/L): statistical differences (P<0.01)
- PP2A (Western Blot signal) (PP2A [5]; compound 1 μmol/L): 557.1
- PP2A(%) (PP2A [5]; compound 1 μmol/L): 14%
- PP2A (Western Blot signal) (PP2A [5]; compound 5 μmol/L): 688.01
- PP2A(%) (PP2A [5]; compound 5 μmol/L): 18%
- PP2A (Western Blot signal) (PP2A [5]; compound 10 μmol/L): 1130.4
- PP2A(%) (PP2A [5]; compound 10 μmol/L): 29%
- effect on the PP2A expression level (PP2A [5]; compound 1, 5 and 10 μmol/L, compared with okadaic acid only): can significantly increase the PP2A expression level dose-dependently
